Test results: patent US20220144838A1, “Compounds as Inhibitors of Macrophage Migration Inhibitory Factor” (NANJING IMMUNOPHAGE BIOTECH CO., LTD., priority 2019, published 2022)

target: T1, MIF (Homo sapiens, UniProt P14174); assay: MIF tautomerase assay using pHPP as substrate; type: biochemical; conditions: inhibition of the MIF enzyme in vitro; mean of multiple test results; read-out: Tautomerase Inhibition pIC50 (converted)
T1 sequence (P14174 2-115 limits assumed): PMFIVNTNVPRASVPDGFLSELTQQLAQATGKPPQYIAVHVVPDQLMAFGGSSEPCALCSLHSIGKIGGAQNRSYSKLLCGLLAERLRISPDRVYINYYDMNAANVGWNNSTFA
Method in brief: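 Cell-free keto-to-enol tautomerization of pHPP, enol product detected spectrophotometrically as borate complex. Final 3 nM MIF and 1.5 mM ketonic pHPP in DPBS/boric acid buffer with 0.025% BSA and 300 μM CHAPS, pH 6.0, room temperature; initial rates from absorbance slopes give mean pIC50.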

SMILES | IC50
CCC(CO)N(C)c1nc(N2CCN(c3ccc(O)cc3)CC2)nc2c1ncn2-c1cccnc1 (stereo not shown) [Example 169, 4-(4-(6-((1-hydroxybutan-2-yl)(methyl)amino)-9-(pyridin-3-yl)-9H-purin-2-yl)piperazin-1-yl)phenol] | 0.01 to 0.0977 µM
O=C(O)C1CCCN(c2nc(N3CCN(c4ccc(O)cc4)CC3)nc3c2ncn3-c2ccncc2)C1 (stereo not shown) [Example 170, 1-(2-(4-(4-hydroxyphenyl)piperazin-1-yl)-9-(pyridin-4-yl)-9H-purin-6-yl)piperidine-3-carboxylic acid] | 0.01 to 0.0977 µM
CN1CCN(c2nc(N3CCN(c4ccc(O)cc4)CC3)nc3c2ncn3-c2ccncc2)CC1=O [Example 175, 4-(2-(4-(4-hydroxyphenyl)piperazin-1-yl)-9-(pyridin-4-yl)-9H-purin-6-yl)-1-methylpiperazin-2-one] | 0.01 to 0.0977 µM
OC[C@@H](COCc1ccccc1)Nc1nc(N2CCN(c3ccc(O)cc3)CC2)nc2c1ncn2-c1ccncc1 [Example 176, (S)-4-(4-(6-((1-(benzyloxy)-3-hydroxypropan-2-yl)amino)-9-(pyridin-4-yl)-9H-purin-2-yl)piperazin-1-yl)phenol] | 0.1 to 0.977 µM
O=C(O)C1CCN(c2nc(N3CCN(c4cccnc4)CC3)nc3c2ncn3-c2ccncc2)C1 (stereo not shown) [Example 181, 1-(2-(4-(pyridin-3-yl)piperazin-1-yl)-9-(pyridin-4-yl)-9H-purin-6-yl)pyrrolidine-3-carboxylic acid] | > 10 µM
Cc1nc(N2CCC(O)(c3ccc(O)cc3)CC2)nc2c1ncn2-c1ccc(C#N)cc1 [Example 185, 4-(2-(4-hydroxy-4-(4-hydroxyphenyl)piperidin-1-yl)-6-methyl-9H-purin-9-yl)benzonitrile] | > 10 µM
CC1CN(c2nc(N)c3ncn(-c4ccncc4)c3n2)CCN1c1ccc(O)cc1 (stereo not shown) [Example 186, 4-(4-(6-amino-9-(pyridin-4-yl)-9H-purin-2-yl)-2-methylpiperazin-1-yl)phenol] | 0.1 to 0.977 µM
Nc1ccc(N2CCN(c3nc(N)c4ncn(-c5ccncc5)c4n3)CC2)nc1 [Example 190, 2-(4-(5-aminopyridin-2-yl)piperazin-1-yl)-9-(pyridin-4-yl)-9H-purin-6-amine] | > 10 µM
Nc1nc(N2CCN(c3ccc(CCO)cc3)CC2)nc2c1ncn2-c1ccncc1 [Example 191, 2-(4-(4-(6-amino-9-(pyridin-4-yl)-9H-purin-2-yl)piperazin-1-yl)phenyl)ethan-1-ol] | > 10 µM
Nc1nc(N2CCN(c3ccc(CO)cc3)CC2)nc2c1ncn2-c1ccncc1 [Example 192, (4-(4-(6-amino-9-(pyridin-4-yl)-9H-purin-2-yl)piperazin-1-yl)phenyl)methanol] | > 10 µM
Nc1nc(N2CCC(n3cc(C(=O)O)cn3)CC2)nc2c1ncn2-c1ccncc1 [Example 195, 1-(1-(6-amino-9-(pyridin-4-yl)-9H-purin-2-yl)piperidin-4-yl)-1H-pyrazole-4-carboxylic acid] | > 10 µM
Nc1nc(N2CCN(c3ccc(CO)cn3)CC2)nc2c1ncn2-c1ccncc1 [Example 196, (6-(4-(6-amino-9-(pyridin-4-yl)-9H-purin-2-yl)piperazin-1-yl)pyridin-3-yl)methanol] | > 10 µM

Continued, values first:

IC50 | SMILES
0.01 to 0.0977 µM | O=C(O)CCN(CCO)c1nc(N2CCN(c3ccc(O)cc3)CC2)nc2c1ncn2-c1ccncc1 [Example 168, 3-((2-hydroxyethyl)(2-(4-(4-hydroxyphenyl)piperazin-1-yl)-9-(pyridin-4-yl)-9H-purin-6-yl)amino)propanoic acid]
0.01 to 0.0977 µM | Oc1ccc(N2CCN(c3nc(N4C[C@H](O)[C@@H](O)C4)c4ncn(-c5ccncc5)c4n3)CC2)cc1 [Example 171, (3S,4S)-1-(2-(4-(4-hydroxyphenyl)piperazin-1-yl)-9-(pyridin-4-yl)-9H-purin-6-yl)pyrrolidine-3,4-diol]
0.01 to 0.0977 µM | CC1(C(=O)O)CCCN1c1nc(N2CCN(c3ccc(O)cc3)CC2)nc2c1ncn2-c1ccncc1 (stereo not shown) [Example 172, 1-(2-(4-(4-hydroxyphenyl)piperazin-1-yl)-9-(pyridin-4-yl)-9H-purin-6-yl)-2-methylpyrrolidine-2-carboxylic acid]
0.01 to 0.0977 µM | OCC(CO)Nc1nc(N2CCN(c3ccc(O)cc3)CC2)nc2c1ncn2-c1ccncc1 [Example 173, 2-((2-(4-(4-hydroxyphenyl)piperazin-1-yl)-9-(pyridin-4-yl)-9H-purin-6-yl)amino)propane-1,3-diol]
0.01 to 0.0977 µM | O=C1CN(c2nc(N3CCN(c4ccc(O)cc4)CC3)nc3c2ncn3-c2ccncc2)CCN1 [Example 174, 4-(2-(4-(4-hydroxyphenyl)piperazin-1-yl)-9-(pyridin-4-yl)-9H-purin-6-yl)piperazin-2-one]
0.1 to 0.977 µM | CC(CO)(CO)Nc1nc(N2CCN(c3ccc(O)cc3)CC2)nc2c1ncn2-c1ccncc1 [Example 177, 2-((2-(4-(4-hydroxyphenyl)piperazin-1-yl)-9-(pyridin-4-yl)-9H-purin-6-yl)amino)-2-methylpropane-1,3-diol]
0.1 to 0.977 µM | Oc1ccc(N2CCN(c3nc(N4CCNCC4)c4ncn(-c5ccncc5)c4n3)CC2)cc1 [Example 178, 4-(4-(6-(piperazin-1-yl)-9-(pyridin-4-yl)-9H-purin-2-yl)piperazin-1-yl)phenol]
1 to 9.77 µM | CN1CCN(c2nc(N3CCN(c4ccc(O)cc4)CC3)nc3c2ncn3-c2ccncc2)CC1 [Example 179, 4-(4-(6-(4-methylpiperazin-1-yl)-9-(pyridin-4-yl)-9H-purin-2-yl)piperazin-1-yl)phenol]
> 10 µM | CN(CC(=O)O)c1nc(N2CCN(c3ccccc3)CC2)nc2c1ncn2-c1ccncc1 [Example 180, N-methyl-N-(2-(4-phenylpiperazin-1-yl)-9-(pyridin-4-yl)-9H-purin-6-yl)glycine]
> 10 µM | O=C(O)C1CCN(c2nc(N3CCN(c4ccccc4)CC3)nc3c2ncn3-c2ccncc2)C1 (stereo not shown) [Example 182, 1-(2-(4-phenylpiperazin-1-yl)-9-(pyridin-4-yl)-9H-purin-6-yl)pyrrolidine-3-carboxylic acid]
> 10 µM | CCC(CO)N(C)c1nc(N2CCN(c3ccc(O)cc3)CC2)nc2c1ncn2-c1cccnc1 (stereo not shown) [Example 183, 4-(4-(6-((1-hydroxybutan-2-yl)(methyl)amino)-9-(pyridin-3-yl)-9H-purin-2-yl)piperazin-1-yl)phenol]
0.01 to 0.0977 µM | Oc1ccc(N2CCN(c3ncc4ncn(-c5ccncc5)c4n3)CC2)cc1 [Example 184, 4-(4-(9-(pyridin-4-yl)-9H-purin-2-yl)piperazin-1-yl)phenol]
> 10 µM | Nc1nc(N2CCN(c3ccc(O)cc3)CC2)nc2c1ncn2C1CCCCO1 (stereo not shown) [Example 187, 4-(4-(6-amino-9-(tetrahydro-2H-pyran-2-yl)-9H-purin-2-yl)piperazin-1-yl)phenol]
> 10 µM | Nc1nc(N2CCN(c3ccc(O)cc3)CC2)nc2c1ncn2C1CCNCC1 [Example 188, 4-(4-(6-amino-9-(piperidin-4-yl)-9H-purin-2-yl)piperazin-1-yl)phenol]
> 10 µM | Nc1nc(N2CCN(c3ccc(C(=O)O)cn3)CC2)nc2c1ncn2-c1ccncc1 [Example 193, 6-(4-(6-amino-9-(pyridin-4-yl)-9H-purin-2-yl)piperazin-1-yl)nicotinic acid]
> 10 µM | NC(=O)c1ccc(N2CCN(c3nc(N)c4ncn(-c5ccncc5)c4n3)CC2)nc1 [Example 194, 6-(4-(6-amino-9-(pyridin-4-yl)-9H-purin-2-yl)piperazin-1-yl)nicotinamide]
